Experimental data from PubChem BioAssay (NCI).
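Test compounds were applied to cells in 96-well plates for 48 hours at 5 doses. TGI: total growth inhibition.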

How the values were obtained:
Experiment in all cases: NCI-60 cell line screen, 48 h
SNB-75 CNS = test system: SNB-75 CNS
NCI/ADR-RES ovarian = test system: NCI/ADR-RES ovarian
MDA-N = test system: MDA-N
OVCAR-8 ovarian = test system: OVCAR-8 ovarian
HCC-2998 colon = test system: HCC-2998 colon
U251 CNS = test system: U251 CNS
A498 renal = test system: A498 renal
BT-549 breast = test system: BT-549 breast
CAKI-1 renal = test system: CAKI-1 renal
HS 578T breast = test system: HS 578T breast
COLO 205 colon = test system: COLO 205 colon
NCI-H226 lung = test system: NCI-H226 lung
MDA-MB-231 breast = test system: MDA-MB-231 breast
IGROV1 ovarian = test system: IGROV1 ovarian
K-562 leukemia = test system: K-562 leukemia
SF-268 CNS = test system: SF-268 CNS
MDA-MB-435 = test system: MDA-MB-435
HOP-62 NSCLC = test system: HOP-62 NSCLC
SN12C renal = test system: SN12C renal
LOX IMVI melanoma = test system: LOX IMVI melanoma
UACC-257 melanoma = test system: UACC-257 melanoma
SK-MEL-28 melanoma = test system: SK-MEL-28 melanoma
UACC-62 melanoma = test system: UACC-62 melanoma
HCT-116 colon = test system: HCT-116 colon
SK-OV-3 ovarian = test system: SK-OV-3 ovarian
HCT-15 colon = test system: HCT-15 colon
ACHN renal = test system: ACHN renal
RPMI-8226 leukemia = test system: RPMI-8226 leukemia
SF-539 CNS = test system: SF-539 CNS
SW-620 colon = test system: SW-620 colon
OVCAR-5 ovarian = test system: OVCAR-5 ovarian
OVCAR-3 ovarian = test system: OVCAR-3 ovarian
TK-10 renal = test system: TK-10 renal
T-47D breast = test system: T-47D breast
MOLT-4 leukemia = test system: MOLT-4 leukemia
DU-145 prostate = test system: DU-145 prostate
NCI-H522 lung = test system: NCI-H522 lung
SNB-19 CNS = test system: SNB-19 CNS
NCI-H460 lung = test system: NCI-H460 lung
SK-MEL-5 melanoma = test system: SK-MEL-5 melanoma
NCI-H23 lung = test system: NCI-H23 lung
SK-MEL-2 melanoma = test system: SK-MEL-2 melanoma
SR leukemia = test system: SR leukemia
HT29 colon = test system: HT29 colon
KM12 colon = test system: KM12 colon
M14 melanoma = test system: M14 melanoma
PC-3 prostate = test system: PC-3 prostate
786-0 renal = test system: 786-0 renal
UO-31 renal = test system: UO-31 renal
SF-295 CNS = test system: SF-295 CNS
CCRF-CEM leukemia = test system: CCRF-CEM leukemia
HL-60(TB) leukemia = test system: HL-60(TB) leukemia
EKVX NSCLC = test system: EKVX NSCLC
MCF7 breast = test system: MCF7 breast
MALME-3M melanoma = test system: MALME-3M melanoma
A549 NSCLC = test system: A549 NSCLC
HOP-92 NSCLC = test system: HOP-92 NSCLC
OVCAR-4 ovarian = test system: OVCAR-4 ovarian
RXF 393 renal = test system: RXF 393 renal

C=CC(C)(C)c1c(OC)oc2ccc(OC)c(C)c2c1=O
TGI (SNB-75 CNS): > 100 µM | TGI (NCI/ADR-RES ovarian): > 100 µM | TGI (MDA-N): > 100 µM | TGI (OVCAR-8 ovarian): > 100 µM | TGI (HCC-2998 colon): > 100 µM | TGI (U251 CNS): > 100 µM | TGI (A498 renal): > 100 µM | TGI (BT-549 breast): > 100 µM | TGI (CAKI-1 renal): > 100 µM | TGI (HS 578T breast): > 100 µM | TGI (COLO 205 colon): > 100 µM | TGI (NCI-H226 lung): > 100 µM | TGI (MDA-MB-231 breast): > 100 µM | TGI (IGROV1 ovarian): > 100 µM | TGI (K-562 leukemia): > 100 µM | TGI (SF-268 CNS): > 100 µM | TGI (MDA-MB-435): > 100 µM | TGI (HOP-62 NSCLC): > 100 µM | TGI (SN12C renal): > 100 µM | TGI (LOX IMVI melanoma): > 100 µM | TGI (UACC-257 melanoma): > 100 µM | TGI (SK-MEL-28 melanoma): > 100 µM | TGI (UACC-62 melanoma): > 100 µM | TGI (HCT-116 colon): > 100 µM | TGI (SK-OV-3 ovarian): > 100 µM | TGI (HCT-15 colon): > 100 µM | TGI (ACHN renal): > 100 µM | TGI (RPMI-8226 leukemia): > 100 µM | TGI (SF-539 CNS): > 100 µM | TGI (SW-620 colon): > 100 µM | TGI (OVCAR-5 ovarian): > 100 µM | TGI (OVCAR-3 ovarian): > 100 µM | TGI (TK-10 renal): > 100 µM | TGI (T-47D breast): > 100 µM | TGI (MOLT-4 leukemia): > 100 µM | TGI (DU-145 prostate): > 100 µM | TGI (NCI-H522 lung): > 100 µM | TGI (SNB-19 CNS): > 100 µM | TGI (NCI-H460 lung): > 100 µM | TGI (SK-MEL-5 melanoma): > 100 µM | TGI (NCI-H23 lung): > 100 µM | TGI (SK-MEL-2 melanoma): > 100 µM | TGI (SR leukemia): > 100 µM | TGI (HT29 colon): > 100 µM | TGI (KM12 colon): > 100 µM | TGI (M14 melanoma): > 100 µM | TGI (PC-3 prostate): > 100 µM | TGI (786-0 renal): > 100 µM | TGI (UO-31 renal): > 100 µM | TGI (SF-295 CNS): > 100 µM | TGI (CCRF-CEM leukemia): > 100 µM | TGI (HL-60(TB) leukemia): > 100 µM | TGI (EKVX NSCLC): > 100 µM | TGI (MCF7 breast): > 100 µM | TGI (MALME-3M melanoma): > 100 µM | TGI (A549 NSCLC): > 100 µM

CC(C)(C)OC(=O)CCC1NC(=O)[C@@H]2Cc3c([nH]c4ccccc34)C(c3ccccc3)N2C1=O (stereo not given in full)
TGI (NCI/ADR-RES ovarian): 87.6 µM | TGI (MDA-N): 45.7 µM | TGI (OVCAR-8 ovarian): > 100 µM | TGI (U251 CNS): 43.3 µM | TGI (A498 renal): > 100 µM | TGI (BT-549 breast): 64.4 µM | TGI (CAKI-1 renal): 75.8 µM | TGI (HS 578T breast): 58.3 µM | TGI (COLO 205 colon): 43.7 µM | TGI (NCI-H226 lung): 86.8 µM | TGI (MDA-MB-231 breast): 42.1 µM | TGI (IGROV1 ovarian): 98.7 µM | TGI (K-562 leukemia): > 100 µM | TGI (SF-268 CNS): 75.8 µM | TGI (MDA-MB-435): 52.1 µM | TGI (HOP-62 NSCLC): 51.2 µM | TGI (SN12C renal): 53.1 µM | TGI (LOX IMVI melanoma): 36.3 µM | TGI (UACC-257 melanoma): 50.1 µM | TGI (SK-MEL-28 melanoma): > 100 µM | TGI (HOP-92 NSCLC): 67.7 µM | TGI (UACC-62 melanoma): 35.7 µM | TGI (HCT-116 colon): 42.7 µM | TGI (SK-OV-3 ovarian): > 100 µM | TGI (OVCAR-4 ovarian): > 100 µM | TGI (HCT-15 colon): 90.5 µM | TGI (ACHN renal): 94.5 µM | TGI (RPMI-8226 leukemia): > 100 µM | TGI (SW-620 colon): > 100 µM | TGI (OVCAR-5 ovarian): 70.2 µM | TGI (OVCAR-3 ovarian): 48.5 µM | TGI (TK-10 renal): > 100 µM | TGI (T-47D breast): > 100 µM | TGI (MOLT-4 leukemia): > 100 µM | TGI (DU-145 prostate): > 100 µM | TGI (NCI-H522 lung): 54.1 µM | TGI (SNB-19 CNS): > 100 µM | TGI (SK-MEL-5 melanoma): 37.9 µM | TGI (NCI-H23 lung): 79.6 µM | TGI (SK-MEL-2 melanoma): 43.2 µM | TGI (SR leukemia): > 100 µM | TGI (HT29 colon): 56 µM | TGI (KM12 colon): 65.4 µM | TGI (M14 melanoma): 87.2 µM | TGI (PC-3 prostate): 52.9 µM | TGI (RXF 393 renal): 45.7 µM | TGI (786-0 renal): > 100 µM | TGI (UO-31 renal): > 100 µM | TGI (SF-295 CNS): 37.8 µM | TGI (HL-60(TB) leukemia): 51.2 µM | TGI (EKVX NSCLC): > 100 µM | TGI (MCF7 breast): > 100 µM | TGI (MALME-3M melanoma): 43.4 µM | TGI (A549 NSCLC): > 100 µM
